The source made the active and inactive calls.
Key:
[1] = tested on: Mus musculus; test: Antiinflammatory activity in mouse assessed as reduction of zymosan-induced number of neutrophils recovered from peritoneal exudates at 10 ng, iv administered 5 mins before zymosan challenge measured after 4 hrs by light microscopy/flow cytometry; assay type: functional, organism-based
[2] = tested on: Macrophage; test: Pro-resolving activity in human macrophages assessed as increase of phagocytosis of fluorescence-labeled yeast cell wall particles at 100 nM to 10 pM preincubated for 15 mins measured after 60 mins; assay type: functional, cell-based
[3] = tested on: Macrophage; test: Pro-resolving activity in human macrophages assessed as increase of phagocytosis of bisbenzimide-labeled apoptotic neutrophils at 100 nM to 10 pM preincubated for 15 mins measured after 60 mins; assay type: functional, cell-based
[4] = tested on: Mus musculus; test: Antiinflammatory activity in mouse assessed as reduction of zymosan-induced neutrophil recruitment during peritonitis at 10 ng, iv administered 5 mins before zymosan challenge measured after 4 hrs by light microscopy/flow cytometry; assay type: functional, organism-based

Measured: Activity

CC/C=C\C[C@H](O)\C=C/C=C/C=C/[C@H](O)C/C=C\C/C=C\CCC(=O)O
active: all assays above

CC/C=C\C[C@H](O)\C=C/C=C/C=C/[C@H](O)C/C=C\CCCCCC(=O)O
active: all assays above
